Data as given in ChEMBL document CHEMBL1201862, “PubChem BioAssay data set” (2004).
Active and inactive are the calls of the source.

Assays:
[1] = target: T1, Sentrin-specific protease 6 (Homo sapiens, UniProt Q9GZR1); assay: SAR Analysis of small molecule inhibitors of Sentrin-specific protease 6 (SENP6) using a Luminescent assay. [Related pubchem assays (depositor defined):AID2582, AID2599]; assay type: functional
T1 sequence (Q9GZR1 whole entry): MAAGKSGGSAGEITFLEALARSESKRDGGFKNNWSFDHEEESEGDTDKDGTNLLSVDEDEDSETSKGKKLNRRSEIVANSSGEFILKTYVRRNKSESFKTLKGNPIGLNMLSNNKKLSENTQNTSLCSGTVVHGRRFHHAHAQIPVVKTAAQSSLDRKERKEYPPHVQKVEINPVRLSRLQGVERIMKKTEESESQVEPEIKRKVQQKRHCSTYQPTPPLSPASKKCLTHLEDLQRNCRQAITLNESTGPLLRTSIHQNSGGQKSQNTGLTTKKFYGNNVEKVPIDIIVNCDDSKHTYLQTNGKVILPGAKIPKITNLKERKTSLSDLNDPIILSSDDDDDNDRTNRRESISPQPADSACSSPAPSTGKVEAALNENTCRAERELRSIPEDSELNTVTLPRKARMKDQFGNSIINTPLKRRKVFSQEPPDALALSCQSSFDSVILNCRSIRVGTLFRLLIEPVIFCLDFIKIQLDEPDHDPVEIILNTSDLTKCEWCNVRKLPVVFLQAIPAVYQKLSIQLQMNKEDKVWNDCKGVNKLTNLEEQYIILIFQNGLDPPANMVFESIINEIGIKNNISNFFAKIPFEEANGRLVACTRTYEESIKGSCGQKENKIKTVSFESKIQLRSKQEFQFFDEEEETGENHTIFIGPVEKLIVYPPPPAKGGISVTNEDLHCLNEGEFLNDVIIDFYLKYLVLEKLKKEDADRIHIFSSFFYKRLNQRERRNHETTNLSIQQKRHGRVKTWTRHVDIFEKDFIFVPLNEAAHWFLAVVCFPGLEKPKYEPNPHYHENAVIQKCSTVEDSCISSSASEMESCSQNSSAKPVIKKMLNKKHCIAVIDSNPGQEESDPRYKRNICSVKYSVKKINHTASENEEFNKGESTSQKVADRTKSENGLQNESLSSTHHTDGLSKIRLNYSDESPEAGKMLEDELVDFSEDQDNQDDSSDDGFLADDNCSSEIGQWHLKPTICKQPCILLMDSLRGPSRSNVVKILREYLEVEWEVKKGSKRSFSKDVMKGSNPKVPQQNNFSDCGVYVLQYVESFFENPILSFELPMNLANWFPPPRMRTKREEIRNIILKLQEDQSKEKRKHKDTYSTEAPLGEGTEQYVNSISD

[2] = target: T2, Sentrin-specific protease 8 (Homo sapiens, UniProt Q96LD8); assay: SENP8 protease inhibitors, SAR follow-up, biochemical, luminescence (AID 504501); assay type: functional
T2 sequence (Q96LD8 whole entry): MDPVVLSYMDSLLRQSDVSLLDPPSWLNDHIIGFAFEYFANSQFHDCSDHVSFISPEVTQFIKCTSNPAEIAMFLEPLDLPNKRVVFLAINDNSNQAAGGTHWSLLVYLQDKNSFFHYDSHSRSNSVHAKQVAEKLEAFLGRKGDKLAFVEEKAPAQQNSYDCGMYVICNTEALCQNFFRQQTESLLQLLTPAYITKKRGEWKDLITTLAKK

[3] = target: T3, Sentrin-specific protease 7 (Homo sapiens, UniProt Q9BQF6); assay: SENP7 protease inhibitors, SAR follow-up, biochemical, luminescence (AID 504497); assay type: functional
T3 sequence (Q9BQF6 whole entry): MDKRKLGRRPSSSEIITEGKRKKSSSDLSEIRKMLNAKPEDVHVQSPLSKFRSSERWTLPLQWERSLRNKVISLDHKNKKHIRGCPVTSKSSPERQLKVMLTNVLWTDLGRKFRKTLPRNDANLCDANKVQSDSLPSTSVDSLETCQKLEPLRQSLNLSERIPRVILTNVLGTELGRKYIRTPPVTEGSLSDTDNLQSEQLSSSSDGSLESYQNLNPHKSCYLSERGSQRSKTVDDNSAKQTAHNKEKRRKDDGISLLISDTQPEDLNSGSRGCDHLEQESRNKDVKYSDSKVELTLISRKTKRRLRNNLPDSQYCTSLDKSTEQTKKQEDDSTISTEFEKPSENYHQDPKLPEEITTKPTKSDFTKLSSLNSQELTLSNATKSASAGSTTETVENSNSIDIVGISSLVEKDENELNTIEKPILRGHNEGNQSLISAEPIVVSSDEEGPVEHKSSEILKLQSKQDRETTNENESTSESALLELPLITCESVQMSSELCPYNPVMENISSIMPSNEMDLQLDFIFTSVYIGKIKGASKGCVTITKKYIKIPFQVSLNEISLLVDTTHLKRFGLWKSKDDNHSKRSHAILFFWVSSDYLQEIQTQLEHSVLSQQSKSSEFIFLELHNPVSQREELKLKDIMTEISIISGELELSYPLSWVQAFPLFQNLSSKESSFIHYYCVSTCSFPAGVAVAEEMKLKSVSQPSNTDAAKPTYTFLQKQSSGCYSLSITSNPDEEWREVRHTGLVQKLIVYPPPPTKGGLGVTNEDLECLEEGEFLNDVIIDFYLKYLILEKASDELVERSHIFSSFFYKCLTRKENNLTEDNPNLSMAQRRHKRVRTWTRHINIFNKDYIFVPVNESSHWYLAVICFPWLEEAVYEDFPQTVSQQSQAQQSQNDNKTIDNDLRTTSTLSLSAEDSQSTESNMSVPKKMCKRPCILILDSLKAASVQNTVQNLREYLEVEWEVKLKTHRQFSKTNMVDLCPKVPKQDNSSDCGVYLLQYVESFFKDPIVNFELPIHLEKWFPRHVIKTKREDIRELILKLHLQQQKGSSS

Caspase-3 [4] = target: T4, Caspase-3 (Homo sapiens, UniProt P42574); assay: SAR Analysis of small molecule inhibitors of Sentrin-specific proteases (SENPs) using a Caspase-3 Selectivity assay. [Related pubchem assays (depositor defined):AID2540, AID2599, AID434973, AID489001]; assay type: functional
T4 sequence (P42574 whole entry): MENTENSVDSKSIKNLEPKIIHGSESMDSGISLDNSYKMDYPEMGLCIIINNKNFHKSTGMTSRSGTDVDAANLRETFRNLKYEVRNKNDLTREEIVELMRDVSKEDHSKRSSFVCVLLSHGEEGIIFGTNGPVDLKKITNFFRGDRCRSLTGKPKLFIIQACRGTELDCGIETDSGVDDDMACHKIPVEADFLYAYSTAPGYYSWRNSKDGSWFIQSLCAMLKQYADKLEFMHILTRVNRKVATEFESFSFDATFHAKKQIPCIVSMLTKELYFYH

[5] = target: T2, Sentrin-specific protease 8; assay: SENP8 protease inhibitors, SAR follow-up, biochemical, luminescence, set 2 (AID 588601); assay type: functional
[6] = target: T3, Sentrin-specific protease 7; assay: SENP7 protease inhibitors, SAR follow-up, biochemical, luminescence, set 2 (AID 588600); assay type: functional
Caspase-3 [7] = target: T4, Caspase-3; assay: caspase-3 inhibitors as off-family protease, SAR follow-up, selectivity assay for SENP protease inhibitor project, biochemical, luminescence, set 2 (AID 588599); assay type: functional
[8] = target: T1, Sentrin-specific protease 6; assay: SENP6 protease inhibitors, SAR follow-up, biochemical, luminescence, set 2 (AID 588598); assay type: functional
[9] = target: T5, Serine/threonine-protein phosphatase (Candida dubliniensis (strain CD36 / CBS 7987 / NCPF 3949 / NRRLY-17841) (Yeast), UniProt B9W6M3); assay: calcineurin pathway inhibitors in yeast reporter, dose response, S. cerevisiae, CDRE-lacZ, luminescence, secondary (AID 2388); assay type: functional, cell-based;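 also: yeast reporter cells carrying a calcineurin-responsive lacZ construct stimulated with calcium chloride; luminescent beta-galactosidase reporter signal in whole cells rather than isolated phosphatase activity; potency for inhibition where a drop in reporter signal means calcineurin blockade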
T5 sequence (B9W6M3 whole entry): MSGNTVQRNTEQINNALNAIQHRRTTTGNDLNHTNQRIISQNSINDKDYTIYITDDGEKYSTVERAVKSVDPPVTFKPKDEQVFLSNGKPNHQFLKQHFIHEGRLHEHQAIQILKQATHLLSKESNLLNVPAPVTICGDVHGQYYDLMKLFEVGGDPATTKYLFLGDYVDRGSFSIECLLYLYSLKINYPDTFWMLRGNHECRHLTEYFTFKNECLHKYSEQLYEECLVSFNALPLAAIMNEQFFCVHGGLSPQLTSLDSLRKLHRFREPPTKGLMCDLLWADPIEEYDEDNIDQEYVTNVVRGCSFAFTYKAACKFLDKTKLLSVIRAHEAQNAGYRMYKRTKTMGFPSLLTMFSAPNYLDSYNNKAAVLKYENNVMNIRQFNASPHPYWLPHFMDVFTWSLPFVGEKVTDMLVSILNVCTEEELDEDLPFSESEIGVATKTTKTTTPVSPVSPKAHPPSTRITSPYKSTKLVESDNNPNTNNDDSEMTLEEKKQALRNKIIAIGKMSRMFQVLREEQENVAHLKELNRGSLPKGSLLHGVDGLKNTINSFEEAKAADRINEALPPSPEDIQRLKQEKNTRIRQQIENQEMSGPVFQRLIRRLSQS

[10] = Vero cell cytotoxicity, cytotoxicity control for M. tuberculosis inhibitor project, purified and synthesized samples, set 3 (AID 504684); assay type: functional
[11] = target: ATP-dependent molecular chaperone HSP82 (Candida albicans (strain WO-1) (Yeast), UniProt C4YTQ8); assay: loss of DOC-induced GRE-beta-galactosidase reporter signal, dose response, Hsp90 inhibitor project, S. cerevisiae, luminescence (AID 2400); assay type: functional, cell-based;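 also: beta-galactosidase luminescence from glucocorticoid response element reporter as proxy for Hsp90 function; inhibitor potency where signal loss means Hsp90 inhibition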
[12] = NIH-3T3 fibroblast cytotoxicity, dose response, cytotoxicity control, cell-based, fluorescence, Alamar Blue, secondary assay (AID 2327); assay type: functional;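 also: NIH-3T3 mouse fibroblasts cultured with fluconazole at 8 µg/mL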
[13] = A Cell Based Secondary Assay to Explore Cytotoxicity in THP-1 Cells of Compounds that Modulate Mycobacterium tuberculosis in Media Containing Glycerol versus Media without Glycerol (2).; assay type: functional
INS1 = assay: beta cell apoptosis inhibitors, cytokine rescue, dose response, luminescence, retest (AID 449756); assay type: functional, cell-based; details: Rattus norvegicus;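 also: cell death triggered by IL-1 beta plus TNF-alpha plus IFN-gamma mixture; protective hits raise ATP signal compared with cytokine alone wells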
[14] = C. albicans growth with fluconazole, confirmation, fluorescence, retest (AID 2467); assay type: functional, cell-based
[15] = microbe, parasite or virus in culture; assay type: functional; details: Mycobacterium tuberculosis
[16] = A Cell Based Secondary Assay to Explore Cytotoxicity in HepG2 Cells of Compounds that Modulate Mycobacterium tuberculosis in Media Containing Glycerol versus Media without Glycerol (2).; assay type: functional

Sequence of ATP-dependent molecular chaperone HSP82 (C4YTQ8 whole entry): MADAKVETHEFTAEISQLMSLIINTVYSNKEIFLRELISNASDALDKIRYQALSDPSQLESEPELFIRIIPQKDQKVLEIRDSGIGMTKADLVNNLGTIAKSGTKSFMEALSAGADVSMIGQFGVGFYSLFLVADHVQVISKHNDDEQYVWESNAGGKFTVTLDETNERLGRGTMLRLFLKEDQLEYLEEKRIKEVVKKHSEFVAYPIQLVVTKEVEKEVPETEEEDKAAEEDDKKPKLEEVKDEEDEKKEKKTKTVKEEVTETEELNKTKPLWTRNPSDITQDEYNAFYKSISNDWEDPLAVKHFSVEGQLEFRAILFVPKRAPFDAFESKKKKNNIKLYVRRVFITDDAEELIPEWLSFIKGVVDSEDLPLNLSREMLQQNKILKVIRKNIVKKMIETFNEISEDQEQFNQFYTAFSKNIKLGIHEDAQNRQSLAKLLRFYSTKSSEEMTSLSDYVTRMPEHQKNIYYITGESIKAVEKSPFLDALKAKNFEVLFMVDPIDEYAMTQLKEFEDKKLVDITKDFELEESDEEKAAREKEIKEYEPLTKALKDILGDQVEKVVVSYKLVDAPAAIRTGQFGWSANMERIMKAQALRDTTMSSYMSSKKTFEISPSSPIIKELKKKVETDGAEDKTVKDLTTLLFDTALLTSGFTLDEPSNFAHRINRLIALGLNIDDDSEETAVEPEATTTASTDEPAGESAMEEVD

For CCS(=O)(=O)c1cccc(C(=O)Nc2nc3ccc(Br)cc3s2)c1, the IC50 [1] was > 99 µM (inactive), the IC50 [2] was > 99 µM (inactive) and the IC50 [3] was > 99 µM (inactive). For the same molecule, the IC50 (Caspase-3 [4]) was > 99 µM (inactive).
With Cc1[nH]c2ccccc2c1C(=O)C(=O)NCc1cccnc1 the IC50 [5] was > 99 µM (inactive), the IC50 [6] was > 99 µM (inactive) and the IC50 (Caspase-3 [7]) was > 99 µM (inactive). The IC50 [8] was > 99 µM (inactive).
For Cc1ccc2ccc3ccc(C)nc3c2n1 [NEOCUPROINE], the EC50 [9] was > 180 µM (inactive), the CC50 [10] was 1.23 µM (active) and the EC50 [11] was > 150 µM (inactive). The EC50 [12] was 147 µM (active), the CC50 [13] was < 0.2 µM (active) and the AC50 (INS1) was < 0.195 µM (active). For the same molecule, the EC50 [14] was 0.133 µM (active), the CC50 [15] was 36.4 µM (active) and the CC50 [16] was 0.21 µM (active).
